Assay results reported in patent publication US8513010B2, “Dendritic cells pulsed with a bisphosphonate” (Medinet Co. Ltd., priority 2004, dated 2013).

What was measured:
[1] = tested on: γδ T-cells; assay: IFN-γ ELISpot confirming activation of γδ T-cells (Example 5); assay type: cell-based, human; conditions: 30,000 γδ T-cells + 15,000 immature or mature dendritic cells + Aredia 10 μM, versus γδ T-cells alone, γδ T-cells with Aredia only, FIG. 2
Method: In each well of a MultiScreen plate (Millipore), 70% ethanol was added and removed within two minutes.
An anti-interferon(IFN)-γ antibody for coating (clone: 1-D1K, MABTECH ELISpot for Human Interferon-γ kit) was diluted with PBS to 15 μg/ml, and added 100 μl/well.
The γδ T-cells obtained in Example 4 were collected by centrifugation and washed twice with AIM-V.
To 30,000 of the γδ T-cells collected, and 15,000 of the immature or mature dendritic cells obtained in Example 1 Aredia, prepared to have a final concentration of 10 μM, was added, and precultivated in a 15 ml tube (Falcon) under the conditions of 37° C. and 5% CO2 for two hours. At the same time, precultivation of γδ T-cells by themselves, precultivation of γδ T-cells with only Aredia added thereto, and precultivation of the respective dendritic cells by themselves were also conducted. Each culture volume was adjusted to 300 μl.
The plate was washed with PBS after blocking, and each group of cells which completed precultivation under the respective conditions was disseminated in three wells, 100 μl/well.
They were cultured overnight under the conditions of 37° C. and 5% CO2. […]
After confirming that the membrane on the plate was dry, the number of spots was measured using an ELISpot reader (AID Autoimmune Diagnostika GmbH), and the data was analyzed using the AID software version 3.1 (AID).

[2] = tested on: γδ T-cells; assay: Culture of peripheral blood mononuclear cells with Aredia and IL-2, phenotype by flow cytometer (Example 4); assay type: cell-based, human; conditions: peripheral blood monocyte suspension, Aredia 10 μM, IL-2 1,000 U/ml, cultivated 14 days
Method: From a healthy donor 30 ml of peripheral blood was collected, and peripheral blood mononuclear cells were collected using a density gradient medium for blood cell separation. The cells collected were washed several times to remove platelets and the like.
The peripheral blood monocytes obtained were suspended in AIM-V medium (10% FCS), and Aredia was added so that the concentration in the peripheral blood monocyte suspension was 10 μM.
This was cultivated for 14 days. During this period, AIM-V (10% FCS) medium and IL-2, at a final concentration of 1,000 U/ml, were added in accordance with the cell proliferation.
Using a flow cytometer, the phenotype of the cells cultured was confirmed to be a cell subset containing at least 95% of γδ T-cells.

SMILES: NCCC(O)(P(=O)([O-])O)P(=O)([O-])O.O.O.O.O.O.[Na+].[Na+] [Aredia, pamidronate disodium pentahydrate]
- number of spots (IFN-γ ELISpot) [1]: increased only when the dendritic cells and Aredia were added simultaneously to the γδ T-cells
- spot intensity (IFN-γ ELISpot) [1]: increased only when the dendritic cells and Aredia were added simultaneously to the γδ T-cells
- γδ T-cells in the cultured cell subset [2]: at least 95%
